Patent US11236129B2, “IL-17A binding peptides and medical uses thereof” (Dompe' Farmaceutici S.P.A., priority 2018, dated 2022)
Residues, ends and D or L forms follow the SMILES beside them.

Columns and labels:
[1] = tested on: human corneal epithelial cells (hCEPIC); test: Permeability test across stratified human corneal epithelial cells; assay type: in vitro ADME
Description: (§1) The objective of this study was to evaluate the apparent permeability coefficient (Papp) value of the peptides across stratified human corneal epithelial cells. All peptides were tested at 50 μM in duplicate.
(§2) In particular, human corneal epithelial cells (hCEPIC) were stratified on Transwell cell culture inserts (Corning, N.Y., USA). The permeation experiments were performed taking samples from receiver chambers at 5, 30, 60 minutes time points and from donor chambers at the same time points. Each aliquot collected was analyzed by HPLC instrument (Knauer) equipped with C18 Vertex Plus Column (Knauer) thermostatically controlled at 40° C. The rate (apparent permeability coefficient, Papp) of the study compounds was calculated and compared to the Papp values of the low and high permeability markers, 6-carboxyfluorescein and Rhodamine B, respectively.
(§3) The apparent permeability coefficient (Papp) was calculated according to Equation: Papp=(I/A*C0)(dM/dt)
(§4) where dM/dt is the flux (nanomoles per second) across the cell layers;
(§5) A (square centimeters) is the exposed surface area of the insert membrane;
(§6) C0 is the initial drug concentration (micromolar) in the donor compartment at t=0 (Xiang et al., Drug Metab Dispos. 2009 May; 37(5):992-8.

[2] = assay type: physicochemical; settings: pH 7.8
Method in brief: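 Peptides dissolved in phosphate buffer pH 7.8 as 10 mM stocks (more dilute for less soluble ones) and stored at 25 °C. Content measured by reversed-phase UHPLC (C18, 0.5% formic acid water/acetonitrile gradient, DAD 220-400 nm, ESI-MS ion trap) after 1:100 dilution to 100 μM, against 100 μM standards, at T0, 3 days and 1 week.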

[3] = Permeability test across stratified human corneal epithelial cells; assay type: in vitro ADME; settings: Permeability (Papp)
Description: as §1, §2, §3, §4, §5, §6

[4] = Isoelectric point, log D and log P (SiriusT3); assay type: physicochemical; settings: for IP (isoelectric point): 25±1° C., 0.15 M KCl; for logP: octanol/ISA water, read-out: logP; for logD: pH 7.4, pH 7.4, octanol/ISA water, read-out: Log D (7.4)
[5] = target: IL-17RA/IL17RC dimerization induced by IL-17A (Homo sapiens, UniProt Q16552); test: IL-17RA/IL17RC dimerization assay in response to IL-17A (PathHunter Cytokine Receptor Assay); assay type: cell-based; settings: IL-17A at EC80; read-out: IC50 in IL-17RA/IL7RC dimerization assay
Method in brief: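 Receptor dimerization was read as chemiluminescence from complemented β-galactosidase after IL-17A at EC80 concentration for 6–16 h at 37 °C. Peptides were added 60 min before agonist, at 37 °C or room temperature, with 1% vehicle. Percent inhibition used the EC80-stimulated and vehicle wells as references.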

IL-17RA/IL17RC dimerization induced by IL-17A, sequence (Q16552 24-155): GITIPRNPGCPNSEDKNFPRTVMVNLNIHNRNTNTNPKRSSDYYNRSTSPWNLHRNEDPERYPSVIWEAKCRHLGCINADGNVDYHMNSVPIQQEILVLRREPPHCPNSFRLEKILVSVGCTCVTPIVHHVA

SMILES	Permeability (Papp) ([1]; 50 μM, stratified human corneal epithelial cells)	solubility [2] [µM]	Papp [3] [×10⁻⁶ cm/s]	permeability compared to high permeability standard Rhodamine B (in words) [1]	IP (isoelectric point) [4]	logP [4]	logD [4]	IC50 [5] [nM]
CCN(CC)c1ccc2c(-c3ccccc3C(=O)O)c3ccc(=[N+](CC)CC)cc-3oc2c1.[Cl-] [Rhodamine B, reference compound]	51.26±5.44 10^−6 cm/sec							
CC[C@H](C)[C@H](NC(=O)[C@@H](NC(=O)[C@@H](NC(=O)[C@H](Cc1c[nH]cn1)NC(=O)[C@@H](NC(C)=O)C(C)C)C(C)C)[C@@H](C)O)C(=O)N1CCC[C@H]1C(=O)N[C@@H](C)C(=O)N[C@@H](CCC(=O)O)C(=O)N[C@@H](CC(C)C)C(=O)N[C@@H](Cc1c[nH]c2ccccc12)C(=O)N[C@@H](CCC(=O)O)C(=O)N[C@@H](Cc1c[nH]c2ccccc12)C(=O)N[C@H](C(=O)N[C@@H](CCCNC(=N)N)C(=O)N[C@@H](CCCNC(=N)N)C(N)=O)C(C)C [SEQ ID NO: 111] (Ac-VHVTIPAELWEWVRR-NH2)		< 50	83.7	higher permeability compared to Rhodamine B	8.99	-0.38	-0.93	< 500
CC[C@H](C)[C@H](NC(=O)[C@H](CCC(N)=O)NC(=O)[C@@H](NC(=O)[C@H](Cc1c[nH]cn1)NC(=O)[C@@H](NC(C)=O)C(C)C)C(C)C)C(=O)N1CCC[C@H]1C(=O)N[C@@H](C)C(=O)N[C@@H](CC(=O)O)C(=O)N[C@@H](CC(C)C)C(=O)N[C@@H](Cc1c[nH]c2ccccc12)C(=O)N[C@@H](CCC(=O)O)C(=O)N[C@@H](Cc1c[nH]c2ccccc12)C(=O)N[C@H](C(=O)N[C@@H](CCCNC(=N)N)C(=O)N[C@@H](CCCNC(=N)N)C(N)=O)C(C)C [SEQ ID NO: 113] (Ac-VHVQIPADLWEWVRR-NH2)		< 50	76.8	higher permeability compared to Rhodamine B	8.99	-0.13	-3.47	< 500
CC[C@H](C)[C@H](NC(=O)[C@@H](NC(=O)[C@@H](NC(=O)[C@H](Cc1c[nH]cn1)NC(=O)[C@@H](NC(C)=O)C(C)C)C(C)C)[C@@H](C)O)C(=O)N1CCC[C@H]1C(=O)N[C@@H](CCC(N)=O)C(=O)N[C@@H](CC(=O)O)C(=O)N[C@@H](CC(C)C)C(=O)N[C@@H](Cc1c[nH]c2ccccc12)C(=O)N[C@@H](CCC(=O)O)C(=O)N[C@@H](Cc1c[nH]c2ccccc12)C(=O)N[C@H](C(=O)N[C@@H](CCCNC(=N)N)C(=O)N[C@@H](CCCNC(=N)N)C(N)=O)C(C)C [SEQ ID NO: 115] (Ac-VHVTIPQDLWEWVRR-NH2)		< 50	68.8	higher permeability compared to Rhodamine B	8.99	-5.94	-3.91	< 500
